We go through one compound from patent publication US12370202B2, “Methods and compositions for inhibiting the NLRP3 inflammasome and/or LON protease” (TRITERPENOID THERAPEUTICS, INC., priority 2019, dated 2025).

The subject of one data set is Caspase 1. In words: Caspase 1 activation in LPS-primed BMDM, immunoblotting (caspase-p10). It counts as cell-based, mouse. Particulars: different doses (30-1000 nM) 15 min before ATP (5 mM) 45 min. Here is the method: FIG. 5 depicts a Western blot. CDDO-Im, CDDO-2P-Im, and CDDO-3P-Im inhibit Caspase 1 activation. LPS primed BMDM were treated with different doses of CDDO-Im, CDDO-2P-Im, or CDDO-3P-Im for 15 min before ATP (5 mM) was added for 45 min. Medium supernatant (SUP) and cell extracts (Lys) were analyzed by immunoblotting.
The effects of the pyridyl derivatives of CDDO-IM, (specifically, CDDO-2P-Im and CDDO-3P-Im) on NLRP3 inflammasome activation were tested in mouse BMDMs. Cells were first primed with LPS for 4 hours, then pretreated with specific doses of either CDDO-Im, CDDO-2P-IM or CDDO-3P-Im (30-1000 nM) for 15 min before ATP was added for another 45 min. CDDO-Im and its pyridyl derivatives inhibited the amount of caspase-p10 (an auto-processed fragment of caspase-1) released into cell culture supernatants in a dose-dependent manner as measured by Western blot (FIG. 5). […] The effect on caspase-1 activation is specific for the NLRP3 inflammasome as the AIM2 inflammasome activation by poly(dA:dT) was not inhibited by the synthetic CDDO-Im derivatives (data not shown).

Another data set relates to NLRP3. In words: Mono-sodium urate (MSU)-induced peritonitis. It counts as in vivo, Mice. The conditions noted are these: MSU crystals 1 mg/mouse i.p.; lavage four to sixteen hours later. As to the method:
FIG. 7 is a bar graph. CDDO-Im, CDDO-2P-Im, and CDDO-3P-Im inhibit mono-sodium urate (MSU)-induced peritonitis. Peritoneal cavity IL-1β levels expressed as mean and SEM (n=6).
Mice received intraperitoneal (i.p.) injections of mono-sodium urate (MSU) crystals (1 mg/mouse) in the presence or absence of CDDO-Im, CDDO-2P-Im, or CDDO-3P-Im. Due to its particulate material, MSU crystals are potent activators of the NOD-like receptor NLRP3. Four to sixteen hours later a peritoneal lavage was conducted to collect supernatant from the peritoneal cavity.

Another data set has as its system LN227. Put plainly: GBM cell growth (confluence), IncuCyte. The class given is cell-based, human. Particulars: nanomolar concentrations. Here is the method: (§1) FIG. 8 is a set of line graphs. CDDO-2P-Im suppresses growth of TMZ-resistant human GBM cells in vitro. […] Reduction in confluence is accompanied by the detachment and death of GBM cells. The data reveal that the relatively TMZ-resistant U-87MG is equivalent to LN227 in its sensitivity to CDDO-2P-Im.
(§2) To define the capacity of CDDO-2P-IM to suppress the growth and viability of GBM, several well-characterized human GBM cell lines (U251, U-87MG, LN227, Gli36Δ5), primary cultures of patient-derived GBM cells (UVM04, D028), and normal human astrocytes (provided by Dr. Arti Gaur, Dartmouth College) were utilized.
(§3) The activity of CDDO-2P-IM in cultures of human GBM was assessed and similar nanomolar (nM) potency was observed. […] These changes in confluence observed by Incucyte® corresponded with a reduction in cell viability. Doses of CDDO-2P-IM that result in complete cell death of the LN227, U251 and U-87MG cell lines had no effect on the viability of primary human astrocytes in vitro (not shown).

Another data set deals with U-87MG. In words: GBM cell growth (confluence), IncuCyte. It counts as cell-based, human. Here is the method: as §1, §2, §3
A further data set has as its system primary human astrocytes. Put plainly: Viability of primary human astrocytes. It counts as cell-based. The conditions noted are these: doses that result in complete cell death of LN227, U251 and U-87MG; not shown. As to the method: as §2, §3
In another data set the test system is brain tumor cell lines. Put plainly: Radiation response of brain tumor cell lines in vitro. The class given is cell-based.
Another data set has as its system A2780. In words: Ovarian cancer cell growth (confluence), IncuCyte ZOOM. It counts as cell-based, human. An excerpt:
(§4) FIG. 11 is a set of line graphs. Cisplatin resistant human ovarian cancer cell lines A2780, CP70, OV81, CP10, OVCAR-5 and OVCAR-8 were exposed to CDDO-2P-Im, cisplatin, or a combination of CDDO-2P-Im and cisplatin.
(§5) CDDO-2P-Im suppresses growth of cisplatin-resistant human ovarian cancer cells in vitro. Cisplatin resistant human ovarian cancer cell lines A2780, CP70, OV81, CP10, OVCAR-5 and OVCAR-8 cell were each cultured in a complete medium consisting of RPMI1640, 20% heat-inactivated FBS, 1% penicillin/streptomycin. Cells were cultured in a water jacketed CO2 incubator at 37° C. in a humidified atmosphere consisting of 5% CO2 and 95% air. Continuous live-cell analysis (CLCA) was used as a non-invasive cell monitoring and measurement method based on time-lapse, phase-contrast microscopy and fluorescence imaging, using IncuCyte® ZOOM. Cells were seeded in 96-well plates at densities of either 1×10^4 or 3×10^4 cell/cm^2 followed by addition of a drug dilution series for either CDDO-2P-Im or Cisplatin (P4394, Sigma) dissolved in PBS and diluted in media. […] Reduction in confluence is accompanied by the detachment and death of ovarian cancer cells.

The next data set has as its system CP10. Described as above. It counts as cell-based, human.
Description: as §4, §5

The test system of another data set is CP70. Described as above. It counts as cell-based, human.
Description: as §4, §5

The next data set concerns OV81. The description is as above. It counts as cell-based, human.
Description: as §4, §5

The test system of a further data set is OVCAR-5. The data set is described as above. The class given is cell-based, human.
Description: as §4, §5

Another data set has as its system OVCAR-8. Described as above. It counts as cell-based, human.
Description: as §4, §5

The mark [1] stands for this setting: suboptimal doses combined with cisplatin, significance at 0.005 or greater.

In the case of `CC1(C)CC[C@]2(C(=O)n3cnc(-c4ccccn4)c3)CC[C@]3(C)[C@H](C(=O)C=C4[C@@]5(C)C=C(C#N)C(=O)C(C)(C)[C@@H]5CC[C@]43C)[C@@H]2C1` [CDDO-2P-Im, 1-[2-Cyano-3,12-dioxooleana-1,9(11)-dien-28-oyl]-4(-pyridin-2-yl)-1H-imidazole], in the data set with Caspase 1, the “Caspase 1 activation (caspase-p10 released into supernatant)” value is recorded as “inhibit”. Also, the “MSU-induced peritonitis (peritoneal cavity IL-1β levels)” value in the data set with NLRP3 is reported as “inhibit”. For the same compound, the “confluence (growth)” value with LN227 and in the data set on U-87MG (nanomolar concentrations) was “dose-dependent reduction” throughout. Moreover, the “GBM cell kill, combination with TMZ” value in the data set with U-87MG (suboptimal dose of CDDO-2P-Im combined with TMZ, significance at 0.005 or greater) was “significant gain”. The viability result in the data set on primary human astrocytes is reported as “no effect”. In the data set with brain tumor cell lines, the radiation response entry is on record as “enhances radiation response”. Also, the “growth (confluence)” value with A2780 (nanomolar concentrations) and with CP70 (nanomolar concentrations) was “suppressed growth in a dose-dependent manner” each time. Further, the “ovarian cancer cell kill, combination with cisplatin” value in the data set on A2780 (setting [1]), in the data set with CP10 (setting [1]), in the data set with CP70 (setting [1]), in the data set with OV81 (setting [1]), in the data set on OVCAR-5 (setting [1]) and with OVCAR-8 (setting [1]) was “significant gain” each time. The “sensitivity (growth)” value in the data set on CP10, in the data set on OV81, with OVCAR-5 and in the data set with OVCAR-8 was “highly sensitive” in each case.
